Assay results taken from ChEMBL document CHEMBL4414609, “High-Affinity Alkynyl Bisubstrate Inhibitors of Nicotinamide N-Methyltransferase (NNMT)” (J Med Chem, 2019).

Experiments:
[1] = target: T1, TPMT (thiopurine S-methyltransferase) (Homo sapiens, UniProt P51580); assay: Inhibition of human TPMT expressed in Escherichia coli assessed as reduction in SAH level at 1 uM using 6-mercaptopurine as substrate in presence of SAM incubated for 30 mins by LC-MS/MS analysis relative to control; conditions: recombinant human TPMT expressed in Escherichia coli, probe 6-mercaptopurine
T1 sequence (P51580 whole entry): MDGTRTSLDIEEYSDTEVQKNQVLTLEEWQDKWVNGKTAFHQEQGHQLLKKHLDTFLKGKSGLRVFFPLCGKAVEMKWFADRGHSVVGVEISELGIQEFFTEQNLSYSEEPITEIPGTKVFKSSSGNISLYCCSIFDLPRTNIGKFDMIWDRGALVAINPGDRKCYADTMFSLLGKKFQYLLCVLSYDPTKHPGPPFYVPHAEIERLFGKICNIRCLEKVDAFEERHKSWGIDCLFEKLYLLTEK

[2] = target: T2, Histone-lysine N-methyltransferase EHMT1 (Homo sapiens, UniProt Q9H9B1); assay: Inhibition of human EHMT1 expressed in Escherichia coli assessed as reduction in methylated histone H3 full length using histone H3 full length as substrate in presence of [3H] SAM incubated for 120 mins by scintillation counting
T2 sequence (Q9H9B1 whole entry): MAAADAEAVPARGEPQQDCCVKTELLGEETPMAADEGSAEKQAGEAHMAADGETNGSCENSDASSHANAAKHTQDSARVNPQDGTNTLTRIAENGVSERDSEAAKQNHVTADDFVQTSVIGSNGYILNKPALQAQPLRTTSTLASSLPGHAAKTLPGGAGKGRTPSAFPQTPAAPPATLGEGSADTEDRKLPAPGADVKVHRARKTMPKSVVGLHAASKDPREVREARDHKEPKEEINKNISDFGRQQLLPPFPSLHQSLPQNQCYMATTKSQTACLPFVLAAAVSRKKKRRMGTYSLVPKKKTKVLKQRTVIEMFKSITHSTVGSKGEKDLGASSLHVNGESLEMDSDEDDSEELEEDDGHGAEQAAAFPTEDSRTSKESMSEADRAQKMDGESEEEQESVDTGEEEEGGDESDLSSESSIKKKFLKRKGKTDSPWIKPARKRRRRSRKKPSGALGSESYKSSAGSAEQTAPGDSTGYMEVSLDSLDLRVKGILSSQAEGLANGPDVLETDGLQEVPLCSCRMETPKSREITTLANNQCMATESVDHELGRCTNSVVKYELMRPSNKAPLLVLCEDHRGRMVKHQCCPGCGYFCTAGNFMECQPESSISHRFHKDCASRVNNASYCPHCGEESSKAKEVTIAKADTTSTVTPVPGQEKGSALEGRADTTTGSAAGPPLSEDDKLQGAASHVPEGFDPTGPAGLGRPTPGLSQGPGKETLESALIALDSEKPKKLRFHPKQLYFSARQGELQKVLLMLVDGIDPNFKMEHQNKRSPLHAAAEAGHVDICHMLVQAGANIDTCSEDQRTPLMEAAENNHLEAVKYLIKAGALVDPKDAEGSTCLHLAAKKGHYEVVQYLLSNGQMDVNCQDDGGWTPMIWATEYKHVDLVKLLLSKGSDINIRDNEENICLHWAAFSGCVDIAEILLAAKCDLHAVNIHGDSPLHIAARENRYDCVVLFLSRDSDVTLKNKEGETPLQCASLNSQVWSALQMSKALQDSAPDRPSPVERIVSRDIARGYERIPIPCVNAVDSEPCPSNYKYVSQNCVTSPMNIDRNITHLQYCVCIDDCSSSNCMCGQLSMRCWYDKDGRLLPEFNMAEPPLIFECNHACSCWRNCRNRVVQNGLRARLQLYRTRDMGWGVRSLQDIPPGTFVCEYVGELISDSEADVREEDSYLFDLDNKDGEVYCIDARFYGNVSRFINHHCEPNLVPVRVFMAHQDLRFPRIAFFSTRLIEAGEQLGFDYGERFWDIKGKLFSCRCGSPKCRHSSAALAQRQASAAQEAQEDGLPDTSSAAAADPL

NC(=O)c1cccc(C#C[C@@H](CC[C@H](N)C(=O)O)C[C@H]2O[C@@H](n3cnc4c(N)ncnc43)[C@H](O)[C@@H]2O)c1
inhibition at 0.5 h, 1 µM [1]: 51%
IC50 [2]: > 10 µM
